Assay results taken from patent US10449186B2, “Phenylethynyl-substituted benzenes and heterocycles for the treatment of cancer” (UNIVERSITY OF KENTUCKY RESEARCH FOUNDATION, priority 2017, dated 2019).
Like-named read-outs stand apart in the source and are kept apart here.

Legend:
[1] = system: LS174T colon cancer cells; test: LS174T cell proliferation assay; format: cell-based; details: Homo sapiens, LS174T, read-out: IC50, LS174T cell proliferation assay
Protocol: Cell proliferation assay. LS174T cells were grown in RPMI medium (Mediatech) supplemented with 5% fetal bovine serum and 1% penicillin/streptomycin. For cell proliferation assays, 3×10^4 cells/well growing in 12-well plates were treated with DMSO or inhibitors. The cell numbers and viability were analyzed by Vi-Cell Cell Viability Analyzer after 4 days. The IC50 values were calculated with GraphPad Prim 5.

cyclin D1 = test: Western blot, cyclin D1 expression in LS174T cells; format: cell-based; details: 300 nM
Protocol: (§1) FIG. 2A is a western blot showing the effects of 4-((2,6-difluorophenyl)ethynyl)-N,N-dimethylaniline (2), 4-((2,6-difluorophenyl)ethynyl)-N,N-dimethylisoquinolin-1-amine (5nn), and 4-((2,6-difluorophenyl)ethynyl)-N-methylisoquinolin-1-amine (5oo) on the expression of […] and p21^Wif1/Cip1 in LS174T cells at 300 nM concentrations.
(§2) Western blotting. Western blotting was performed as described previously. The following antibodies were used: anti-c-myc (Epitomics, 1472-1), anti-p21^Wif1/Cip1 (Cell Signaling, 2947), anti-β-tubulin (DSHB, E7).

p21^Wif1/Cip1 = test: Western blot, p21^Wif1/Cip1 expression in LS174T cells; format: cell-based; details: 300 nM
Protocol: as §1, §2

[2] = system: LS174T colon cancer cells; details: data from Sviripa et al. 2014, cited from earlier work; for inhibition of proliferation (%) of colon cancer LS174T cells: Table 1; for inhibition of cell proliferation (%) of colon cancer LS174T cells: Table 2
Water solubility = details: parent compound

For `CN(C)c1ccc(C#Cc2c(F)cccc2F)cc1` [Compound 2, 4-((2,6-difluorophenyl)ethynyl)-N,N-dimethylaniline], the IC50 [1] was 25.1 ± 1.3 nM, the “cyclin D1 expression (western blot)” value (cyclin D1) was “inhibited cyclin D1 expression” and the “p21^Wif1/Cip1 expression (western blot)” value (p21^Wif1/Cip1) was “induced p21^Wif1/Cip1”. The “inhibition of proliferation (%) of colon cancer LS174T cells” value ([2]; 100 nM) was 85.2%, the “inhibition of proliferation (%) of colon cancer LS174T cells” value ([2]; 1 μM) was 99.5% and the “inhibition of cell proliferation (%) of colon cancer LS174T cells” value ([2]; 30 nM) was 57 ± 1.2%. For the same compound, the “inhibition of cell proliferation (%) of colon cancer LS174T cells” value ([2]; 100 nM) was 85.2 ± 0.5%, the “inhibition of cell proliferation (%) of colon cancer LS174T cells” value ([2]; 1 μM) was 99.5 ± 0.1% and the water solubility (Water solubility) was “sparingly water-soluble”.
